Holding throughout (type): cell-based
For test [1], the target named is T1, glucocorticoid receptor (Homo sapiens, UniProt P04150).
T1 construct: A549 cells stably transfected with a reporter gene; endogenous in cells; host or cells: A549 cells (stably transfected with a reporter gene only)
T1 sequence (P04150 1-777): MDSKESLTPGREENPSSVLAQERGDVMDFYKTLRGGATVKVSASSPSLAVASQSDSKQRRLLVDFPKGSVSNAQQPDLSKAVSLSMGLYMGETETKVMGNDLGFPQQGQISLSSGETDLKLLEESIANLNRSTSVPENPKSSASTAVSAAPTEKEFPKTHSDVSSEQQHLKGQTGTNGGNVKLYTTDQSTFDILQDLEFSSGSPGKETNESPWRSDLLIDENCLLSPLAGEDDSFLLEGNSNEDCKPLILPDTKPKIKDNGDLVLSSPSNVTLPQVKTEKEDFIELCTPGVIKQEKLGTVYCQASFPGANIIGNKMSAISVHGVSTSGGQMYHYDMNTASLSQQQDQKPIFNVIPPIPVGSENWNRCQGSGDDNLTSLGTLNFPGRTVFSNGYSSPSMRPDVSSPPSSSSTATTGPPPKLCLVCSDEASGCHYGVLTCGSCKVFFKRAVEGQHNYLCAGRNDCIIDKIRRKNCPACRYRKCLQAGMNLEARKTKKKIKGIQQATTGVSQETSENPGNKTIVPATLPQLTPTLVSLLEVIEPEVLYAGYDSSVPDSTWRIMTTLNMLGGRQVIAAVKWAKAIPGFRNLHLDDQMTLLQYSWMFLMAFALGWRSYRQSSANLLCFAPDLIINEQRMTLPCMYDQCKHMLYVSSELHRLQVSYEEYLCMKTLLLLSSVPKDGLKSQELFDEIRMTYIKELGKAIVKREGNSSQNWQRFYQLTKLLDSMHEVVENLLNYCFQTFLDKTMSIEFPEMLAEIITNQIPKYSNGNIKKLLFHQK
The test can be described thus: NF-κB transrepression reporter assay (ELAM promoter-sPAP) in A549 cells. To be noted: compound 1 hour at 37° C., then TNF 10 ng/ml for 16 hours, read-out: EC50 (transrepressive activity). Here is the method:
The functional assay based on that described by K. P. Ray et al., Biochem J. (1997), 328, 707-715 provides a measure of transrepressive activity of a glucocorticoid agonist. A549 cells stably transfected with a reporter gene containing the NF-κB responsive elements from the ELAM gene promoter coupled to sPAP (secreted alkaline phosphatase) are treated with test compounds at appropriate doses for 1 hour at 37° C. The cells are then stimulated with tumour necrosis factor (TNF, 10 ng/ml) for 16 hours, at which time the amount of alkaline phosphatase produced is measured by a standard colourimetric assay. Dose response curves are constructed from which EC50 values may be estimated.

Test [2] has as its target T1, glucocorticoid receptor. The test can be described thus: MMTV-LTR renilla luciferase transactivation reporter assay in A549 cells. To be noted: 6 hour at 37° C., read-out: maximal response relative to Dexamethasone (100%). Here is the method: The functional assay based on that described by R. J. H. Austin et al., Eur Resp J. (2002), 20, 1386-1392 measures the ability of compounds to directly transactivate gene expression. A549 cells stably transfected with a reporter gene containing the glucocorticoid responsive region of the mouse mammary tumour virus long terminal repeat (MMTV-LTR) coupled to renilla luciferase were treated with test compounds at appropriate doses for 6 hour at 37° C. The amount of luciferase activity present within the cells is then determined by measuring the light emitted following incubation with a suitable substrate.
On the technique in general: Reporter assays use an easily measured gene product as a stand-in for the process of interest.

In the next test the target is T2, Progesterone Receptor (Homo sapiens, UniProt P06401).
T2 construct: T47D cells were seeded into 96 well plates; endogenous in cells; host or cells: T47D human breast cancer cells
T2 sequence (P06401 1-933): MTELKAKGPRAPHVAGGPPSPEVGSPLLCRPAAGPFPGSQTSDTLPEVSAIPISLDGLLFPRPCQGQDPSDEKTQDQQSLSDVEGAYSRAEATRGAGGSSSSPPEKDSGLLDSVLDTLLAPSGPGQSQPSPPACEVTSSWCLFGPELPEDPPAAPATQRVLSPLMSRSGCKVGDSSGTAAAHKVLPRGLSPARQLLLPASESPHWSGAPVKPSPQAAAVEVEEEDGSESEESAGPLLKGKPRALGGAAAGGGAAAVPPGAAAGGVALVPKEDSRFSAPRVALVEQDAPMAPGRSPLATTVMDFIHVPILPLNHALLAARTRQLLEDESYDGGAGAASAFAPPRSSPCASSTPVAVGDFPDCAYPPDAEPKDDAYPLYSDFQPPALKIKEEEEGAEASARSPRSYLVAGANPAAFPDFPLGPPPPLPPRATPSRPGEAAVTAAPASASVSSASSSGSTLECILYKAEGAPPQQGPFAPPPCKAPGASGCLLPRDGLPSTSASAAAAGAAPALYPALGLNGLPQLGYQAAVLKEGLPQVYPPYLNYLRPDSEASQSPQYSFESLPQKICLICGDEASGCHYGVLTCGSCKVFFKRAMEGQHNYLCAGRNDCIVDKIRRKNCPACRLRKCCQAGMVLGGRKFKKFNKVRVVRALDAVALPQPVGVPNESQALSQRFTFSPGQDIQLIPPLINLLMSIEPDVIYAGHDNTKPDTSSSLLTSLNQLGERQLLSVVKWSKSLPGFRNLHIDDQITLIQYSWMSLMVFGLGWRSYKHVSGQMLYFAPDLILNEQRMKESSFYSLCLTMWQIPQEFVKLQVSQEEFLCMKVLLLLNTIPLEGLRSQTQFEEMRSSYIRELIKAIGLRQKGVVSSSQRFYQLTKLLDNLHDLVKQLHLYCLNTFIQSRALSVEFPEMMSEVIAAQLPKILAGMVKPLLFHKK
The test can be described thus: Assay for progesterone receptor activity (alkaline phosphatase in T47D cells). To be noted: T47D human breast cancer cells, 24 hours at 37° C.; read-out: EC50 (alkaline phosphatase upregulation).

Drawing on US7291609B2, “Specific glucocorticosteroid compound having anti-inflammatory activity” (Glaxo Group Limited, priority 2003, dated 2007), this text covers EC50 and Emax for one molecule.

The EC50 is the midpoint of the concentration-response curve. Consider `C[C@@H]1C[C@H]2[C@@H]3C[C@H](F)C4=CC(=O)C=C[C@]4(C)[C@@]3(F)[C@@H](O)C[C@]2(C)[C@@]1(OC(=O)C1C(C)(C)C1(C)C)C(=O)OCC#N` [Example 1, 6α,9α-Difluoro-11β-hydroxy-16α-methyl-3-oxo-17α-(2,2,3,3-tetramethycyclopropylcarbonyl)oxy-androsta-1,4-diene-17β-carboxylic acid cyanomethyl ester], for which the EC50 at glucocorticoid receptor [1] is less than 0.1 nM; on Progesterone Receptor it was greater than 100 nM. At glucocorticoid receptor [2], the Emax was less than 5%.
